Measured values as given in article PMC9401007, “Advances towards Cell‐Specific Gene Transfection: A Small‐Molecule Approach Allows Order‐of‐Magnitude Selectivity” (Chemistry (Weinheim an Der Bergstrasse, Germany), 2022).

Legend:
[1] = system: HeLa cells; test: MTS-based cell-viability assay (CellTiter 96 AQueous One Solution Cell Proliferation Assay); conditions: 5 h incubation with plasmid DNA 1 µg/ml
Description: (§1) The development of vector 1 is illustrated in Table 1. In order to assess structure–activity relationships (SAR), we analyzed the minimal concentration needed to achieve transfection in steps of 100 μM, the toxicological profile and the transfection efficiency. To get swift access to toxicity data for SAR analysis, the compounds listed in Table 1 were evaluated in an MTS‐based cell‐viability assay, and transfection efficiencies were analyzed by CellProfiler® on HeLa cells (see the Supporting Information for details).[18] […] Amide formation on the N terminus reduced the net charge by 1, and acetylation at this position led to an increased concentration needed for successful transfection (Table 1, Entry B). Finally, the descent in transfection efficiency to 5.9 % highlights the relevance of a fifth positive charge.[19] Apparently, this reduction of positive charges impedes DNA condensation and must be compensated for.
4. Biological experiments
Determination of the toxicity of the compounds was performed using the colorimetric CellTiter 96® AQueous One Solution Cell Proliferation Assay (Promega). […] Absorbance at 490 nm was measured using a GloMax-multi plate reader (Promega). […]

[2] = system: HeLa cells; test: Transfection of pH2B-mCherry plasmid, microscopy with CellProfiler readout; format: cell-based
Description: as §1
4.2 Transfection and Microscopy
Cells were seeded in a 96-well plate from (Greiner bio-one) 24 h prior to experiments at a confluence of 1x104 in 100 µL of culture growth medium and grown at 37.0 °C, 5% CO2 atmosphere and 95% relative humidity. The vector was dissolved in DMSO. 0.100 µg of DNA were diluted with DB-PBS and an appropriate amount of vector solution added resulting in a total volume of 30 µL. This solution was incubated for 20 min at rt. Afterwards 30.0 µL of culture growth medium was replaced by vector/DNA mixture. All precipitate which had formed during the incubation process was added to the well. After 5 h of incubation the cells were washed with warm DB-PBS buffer (2x100 µL per well) before incubating the cells for 24h at 37.0 °C, 5% CO2 atmosphere and 95% relative humidity. After 24 h the cells were examined under the microscope.
Figure S4. Representative microscopy images of HEK293t, HeLa, CHO, A549 and HCT116 cells 24 h after transfection with 1 (150 µM) with pH2B-mCherry.
Scale bar represents 200 µm. […]
4.3 Quantification of Transfection Results
For quantification of transfection efficiencies, cells were transfected with the pH2B-mCherry plasmid using the different compounds at the described concentrations and stained with DAPI. […] The transfection efficiency was calculated using CellProfiler™.[7] […] Next, the fluorescence intensity in the red channel (Ex = 555 nm; Em > 590 nm) was measured within the segmented nuclei and a threshold was applied.
The ratio between pH2B-mCherry positive nuclei and all nuclei (segmented by DAPI) was determined as transfection efficiency. […]
Figure S7. […] The pipeline recognizes Hoechst-stained nuclei and measures the intensity of the fluorescent reporter protein within the previously calculated nuclei boundaries. […]

tetralysine-guanidinocarbonylpyrrol
Toxicity (qualitative, MTS assay) ([1]; concentration range optimal for transfection (for entry A: at the minimal concentration 150 μM), absorbance 490 nm, normalised to DMSO control): low (Low=cell viability ≥70 %) | Toxicity (qualitative, MTS assay) at the optimal concentration ([1]; entry A at 300 μM (opt.)): high (high=cell viability <70 %) | Conc.: minimal concentration needed to observe successful transfection during microscopy ([2]; analysed in steps of 100 μM, pH2B-mCherry plasmid, 5 h incubation, examined after 24 h): 150 µM | Efficiency: transfection efficiency by CellProfiler readout ([2]; at the (minimal) concentration printed in column Conc., fraction of pH2B-mCherry positive nuclei): 3.2% | Efficiency: transfection efficiency by CellProfiler readout at the optimal concentration ([2]; at the concentration marked (opt.): A 300 μM, 1 150 μM): 48% | Conc. (opt.): concentration of maximum transfection efficiency ([2]; pH2B-mCherry plasmid): 300 µM
